# “And” between values parts separate entries of the source, which are not always exact repeats. Equal entries are not always repeated.
# Experiments:
# [1] = tested on: E. coli ATCC 25922 (β-lac-ve); test: Disk zone of inhibition, antibiotic + Compound-1 on same disk (Methodology 2); assay type: cell-based, Escherichia coli
# [2] = tested on: KPC-2 producing K. pneumoniae (ATCC BAA-1705); test: Synergistic broth micro-dilution MIC (checkerboard); assay type: cell-based, Klebsiella pneumoniae; conditions: ATCC BAA-1705
# [3] = tested on: KPC-3 expressing E. coli (J53 R6206); test: microbe, parasite or virus in culture; assay type: cell-based, Escherichia coli
# Protocol: The β-lactam compound was tested for in vitro antibacterial activities by the broth micro-dilution or agar dilution method as specified in documents published by Clinical and Laboratory Standards Institute (CLSI), USA (formerly NCCLS). Approved standard M7-A7, January 2006, CLSI, Wayne, Pa., USA and M100-S18, January 2008, CLSI, Wayne, Pa., USA.
# In agar dilution method briefly, stock solutions of the cephalosporins for veterinary use (e.g. 2 mg/mL) was made in water, 0.1M phosphate buffers or appropriate solvents and the solution was serially two fold diluted. Compound-1 was dissolved in water and Tazobactam (comparator BLI) in 0.1M phosphate buffer, pH 6.0 to get a solution of 1 mg/mL. Cephalosporins were screened in a concentration range of 0.5-32 μg/mL. For combination, Tazobactam or the Compound-1 described herein were tested at a fixed concentration of 4 μg/mL along with the cephalosporins concentration ranging from 0.5 to 32 μg/mL. […] The compound of formula (I) and Tazobactam were also tested individually. The bacterial inoculum was prepared by picking 3 to 5 well isolated bacterial colonies with the same morphological appearance from an 18-24 h old culture and adjusting the turbidity of the saline suspension to 0.5 McFarland turbidity standard equivalent to a bacterial population of ˜1×10^8 CFU per mL of suspension. The suspension was diluted 1:10 in saline to get a bacterial population of ˜1×10^7 CFU/mL as inoculum. This bacterial inoculum was inoculated onto the prepared petri dishes by a multipoint inoculator with each inoculum spot containing ˜1×10^4 CFU of the bacterial strain. The inoculated petri dishes were incubated at 35° C. in an ambient atmosphere for 18-20 h.
# [4] = target: T1, crude KPC-2 enzyme extract (Klebsiella pneumoniae, UniProt Q9F663); test: β-Lactamase inhibitory assay with CENTA substrate; assay type: biochemical
# T1 construct: enzyme extracts from KPC-2 producing and KPC-3 expressing bacterial gram negative strains were used; endogenous in cells; host or cells: KPC-2 producing gram-negative strain
# Method in brief: (§1)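 Enzyme extracts from KPC-2-producing and KPC-3-expressing Gram-negative strains served as β-lactamase source. Inhibition by test compound measured with CENTA as chromogenic β-lactamase substrate; IC50 determined.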
# [5] = target: crude KPC-3 enzyme extract (UniProt Q9F663, H272Y, species not given); test: β-Lactamase inhibitory assay with CENTA substrate; assay type: biochemical; conditions: also headed KPC2
# Method in brief: as §1
# [6] = BLI at 4 μg/mL, E. coli J53 R6206
compound,measurement,setting,value
"C[n+]1ccn(C[C@@]2(C)[C@H](C(=O)[O-])N3C(=O)C[C@H]3S2(=O)=O)n1 [Compound-1, 1-{[(2S,3S,5R)-2-Carboxy-3-methyl-4,4,7-trioxo-4-thia-1-azabicyclo[3.2.0]hept-3-yl]methyl}-3-methyl-1H-1,2,3-triazol-3-ium]",ZOI of CAZ + Compound-1,"[1]; Ceftazidime 30 μg + Compound-1 60 μg on same disk, ATCC 25922",25 mm
same,ZOI of IPM + Compound-1,"[1]; Imipenem 10 μg + Compound-1 60 μg on same disk, ATCC 25922",26.5 mm
same,Zone of inhibition of compound-1 alone,"[1]; β-lactamase negative strain, FIG. 1 (D)",does not show any zone of inhibition
same,MIC of Cefquinome in combination with BLI,[2]; BLI at 1 μg/mL,>64 µg/mL
same,MIC of Ceftiofur in combination with BLI,[2]; BLI at 1 μg/mL,>64 µg/mL
same,MIC of Cefepime in combination with BLI,[2]; BLI at 2 μg/mL,64 µg/mL
same,MIC of Cefotaxime in combination with BLI,[2]; BLI at 2 μg/mL,32 µg/mL
same,MIC of Cefquinome in combination with BLI,[2]; BLI at 2 μg/mL,>64 µg/mL
same,MIC of Ceftazidime in combination with BLI,[2]; BLI at 2 μg/mL,>64 µg/mL
same,MIC of Ceftiofur in combination with BLI,[2]; BLI at 2 μg/mL,>64 µg/mL
same,MIC of Ceftobiprole in combination with BLI,[2]; BLI at 2 μg/mL,>64 µg/mL
same,MIC of Imipenem in combination with BLI,[2]; BLI at 2 μg/mL,4 to 8 µg/mL
same,MIC of Meropenem in combination with BLI,[2]; BLI at 2 μg/mL,16 µg/mL
same,MIC of Aztreonam in combination with BLI,[2]; BLI at 4 μg/mL,>64 µg/mL
same,MIC of Cefadroxil in combination with BLI,[2]; BLI at 4 μg/mL,>64 µg/mL
same,MIC of Cefalonium in combination with BLI,[2]; BLI at 4 μg/mL,>64 µg/mL
same,MIC of Cefepime in combination with BLI,[2]; BLI at 4 μg/mL,32 µg/mL
same,MIC of Cefotaxime in combination with BLI,[2]; BLI at 4 μg/mL,16 µg/mL
same,MIC of Cefquinome in combination with BLI,[2]; BLI at 4 μg/mL,64 µg/mL
same,MIC of Ceftazidime in combination with BLI,[2]; BLI at 4 μg/mL,≥64 µg/mL
same,MIC of Ceftiofur in combination with BLI,[2]; BLI at 4 μg/mL,>64 µg/mL
same,MIC of Ceftobiprole in combination with BLI,[2]; BLI at 4 μg/mL,>64 µg/mL
same,MIC of Ertapenem in combination with BLI,[2]; BLI at 4 μg/mL,32 µg/mL
same,MIC of Faropenem in combination with BLI,[2]; BLI at 4 μg/mL,>64 µg/mL
same,MIC of Imipenem in combination with BLI,[2]; BLI at 4 μg/mL,4 µg/mL
same,MIC of Meropenem in combination with BLI,[2]; BLI at 4 μg/mL,4 to 8 µg/mL and 8 µg/mL
same,MIC of Cefepime in combination with BLI,[2]; BLI at 8 μg/mL,16 µg/mL
same,MIC of Cefotaxime in combination with BLI,[2]; BLI at 8 μg/mL,16 µg/mL
same,MIC of Cefquinome in combination with BLI,[2]; BLI at 8 μg/mL,64 µg/mL
same,MIC of Ceftazidime in combination with BLI,[2]; BLI at 8 μg/mL,64 µg/mL
same,MIC of Ceftiofur in combination with BLI,[2]; BLI at 8 μg/mL,64 µg/mL
same,MIC of Ceftobiprole in combination with BLI,[2]; BLI at 8 μg/mL,>64 µg/mL
same,MIC of Ertapenem in combination with BLI,[2]; BLI at 8 μg/mL,16 µg/mL
same,MIC of Faropenem in combination with BLI,[2]; BLI at 8 μg/mL,>64 µg/mL
same,MIC of Imipenem in combination with BLI,[2]; BLI at 8 μg/mL,2 µg/mL
same,MIC of Meropenem in combination with BLI,[2]; BLI at 8 μg/mL,2 to 4 µg/mL
same,MIC of Aztreonam in combination with BLI,[2]; BLI at 16 μg/mL,64 µg/mL
same,MIC of Cefadroxil in combination with BLI,[2]; BLI at 16 μg/mL,>64 µg/mL
same,MIC of Cefalonium in combination with BLI,[2]; BLI at 16 μg/mL,32 µg/mL
same,MIC of Cefepime in combination with BLI,[2]; BLI at 16 μg/mL,4 µg/mL
same,MIC of Cefotaxime in combination with BLI,[2]; BLI at 16 μg/mL,4 µg/mL
same,MIC of Cefquinome in combination with BLI,[2]; BLI at 16 μg/mL,8 to 16 µg/mL
same,MIC of Ceftazidime in combination with BLI,[2]; BLI at 16 μg/mL,4 µg/mL
same,MIC of Ceftiofur in combination with BLI,[2]; BLI at 16 μg/mL,16 to 32 µg/mL
same,MIC of Ceftobiprole in combination with BLI,[2]; BLI at 16 μg/mL,64 µg/mL
same,MIC of Ertapenem in combination with BLI,[2]; BLI at 16 μg/mL,8 µg/mL
same,MIC of Faropenem in combination with BLI,[2]; BLI at 16 μg/mL,64 µg/mL
same,MIC of Imipenem in combination with BLI,[2]; BLI at 16 μg/mL,<0.5 to 1 µg/mL and 1 µg/mL
same,MIC of Meropenem in combination with BLI,[2]; BLI at 16 μg/mL,1 µg/mL
same,MIC of Cefquinome in combination with BLI,[2]; BLI at 32 μg/mL,2 to 4 µg/mL
same,MIC of Ceftiofur in combination with BLI,[2]; BLI at 32 μg/mL,4 µg/mL
same,MIC of Aztreonam in combination with BLI,[2]; BLI at 64 μg/mL,<0.5 µg/mL
same,MIC of Cefadroxil in combination with BLI,[2]; BLI at 64 μg/mL,64 µg/mL
same,MIC of Cefalonium in combination with BLI,[2]; BLI at 64 μg/mL,8 µg/mL
same,MIC of Cefepime in combination with BLI,[2]; BLI at 64 μg/mL,<0.5 µg/mL
same,MIC of Cefotaxime in combination with BLI,[2]; BLI at 64 μg/mL,≤0.5 µg/mL
same,MIC of Cefquinome in combination with BLI,[2]; BLI at 64 μg/mL,1 µg/mL
same,MIC of Ceftazidime in combination with BLI,[2]; BLI at 64 μg/mL,1 µg/mL
same,MIC of Ceftiofur in combination with BLI,[2]; BLI at 64 μg/mL,2 to 4 µg/mL
same,MIC of Ceftobiprole in combination with BLI,[2]; BLI at 64 μg/mL,≤0.5 µg/mL
same,MIC of Ertapenem in combination with BLI,[2]; BLI at 64 μg/mL,<0.5 µg/mL
same,MIC of Faropenem in combination with BLI,[2]; BLI at 64 μg/mL,4 µg/mL
same,MIC of Imipenem in combination with BLI,[2]; BLI at 64 μg/mL,<0.5 to 1 µg/mL
same,MIC of Meropenem in combination with BLI,[2]; BLI at 64 μg/mL,<0.5 µg/mL
same,MIC of Cefadroxil in combination with BLI,[3]; [6],>32 µg/mL
same,MIC of Cefalonium in combination with BLI,[3]; [6],4 µg/mL
same,MIC of Cefquinome in combination with BLI,[3]; [6],<0.5 µg/mL
same,MIC of Ceftiofur in combination with BLI,[3]; [6],<0.5 µg/mL
same,MIC,"[3]; Escherichia coli, read-out: MIC of BLI alone",> 16 µg/mL
same,IC50,[4],190 µM
same,IC50,[5],10.7 µM

# Reference: patent US10201532B2, “Compounds and their use” (ALLECRA THERAPEUTICS GMBH, priority 2010, dated 2019)
